This note sets out measurements from US20050267073A1, “Triheterocyclic compounds, compositions, and methods for treating cancer or viral diseases” (priority 2004, published 2005).

In brackets after ≈: the same amount, converted by molar mass. Structures can show the parent of a compound that is named as a salt. Where two headings read alike, the source gives them in different places.

The test system of data set [1] is C33A cervical carcinoma cells. The data set can be described thus: cells. The data set is classed as cell-based. To be noted: C-33A, Cervix; ATP levels 72 h post-treatment compared to untreated cells; read-out: IC50 of Compound 1 tartrate. The text has this:
(§1) […]. […] […]. The total dimethyl sulfoxide on the cells was 1%. […] […].
(§2) As depicted in Table 4, these compounds were efficient in decreasing cellular ATP levels in HI 299 and C33A cancer cell lines. Nevertheless, these compounds are believed to have utility in the in vivo methods of the invention, i.e., treatment and prevention of cancer and viral infections, respectively. It should be noted that, although this cell-based assay is believed to be indicative of anti-oncogenic activity in vivo, it is not the only useful assay for evaluating the anti-oncogenic activity of Triheterocyclic Compounds of the invention. In addition, the anti-viral and other biological activity of compounds of the invention can be determined and evaluated in other assay systems known to the skilled artisan.

Data set [2] has as its system H1299 human non-small cell lung cancer cells. Nature of the data set: Cell viability by cellular ATP levels (ViaLight), H1299 cells. The data set is classed as cell-based. To be noted: H1299, NSCLC; ATP levels 72 h post-treatment compared to untreated cells; read-out: IC50 of Compound 1 tartrate.
Source text: as §1, §2

Data set [3] can be described thus: Shelf stability (precipitation) of formulation. The data set is classed as physicochemical. Conditions: 0.6 mg/mL in 9.6% polyethylene glycol 300, 0.4% polysorbate 20 and 5% dextrose; listed as Compound 1 Tartrate Salt.
Description: (§5) To determine whether a compound is soluble in a solution, the solution was filtered on 0.2 μM polytetrafluoroethylene filters (Whatman Inc. Clifton, N.J., USA) and the compound concentration in the filtrate was measured by LC/MS and compared to the expected concentration.
The test system of data set [4] is A549 human lung carcinoma cell line. Conditions: read-out: IC50 of Compound 1 tartrate; A549, NSCLC; ATP levels 72 h post-treatment compared to untreated cells. The protocol: (§3) The cells lines were plated in 96-well microtiter plates (PerkinElmer Life Sciences Inc, Boston, Mass., USA) at a confluency that allowed them to reach confluence after 4 days of growth. […] The total dimethyl sulfoxide on the cells was 1%. After 3 days of incubation the ATP levels in the cells were quantified using a luminescent ViaLight detection system (Bio-Whittaker, MD, USA).

Data set [5] relates to MCF-7 human breast cancer cell line. Conditions: read-out: IC50 of Compound 1 tartrate; MCF-7, Breast; ATP levels 72 h post-treatment compared to untreated cells. The protocol:
as §3

For data set [6], the system named is ADR-RES human breast cancer cell line. To be noted: read-out: IC50 of Compound 1 tartrate; NCI/ADR-RES, Breast (Mutli-drug resistant); ATP levels 72 h post-treatment compared to untreated cells. The protocol:
as §3

Data set [7] has as its system cancer cell lines H1299 and C33A, normal cell lines HMEC and MRC-5. To be noted: 0.5 μM, 72 hours after treatment; H1299 and C33A vs HMEC and MRC-5; FIG. 1. The protocol:
as §3

For data set [8], the system named is B16-F1 mouse melanoma cell line. To be noted: read-out: IC50 of Compound 1 tartrate; B16-F1, Murine Melanoma; ATP levels 72 h post-treatment compared to untreated cells. How it is done: as §3
The test system of data set [9] is SW-480 human adenocarcinoma cell line. To be noted: read-out: IC50 of Compound 1 tartrate; SW-480, Colorectal; ATP levels 72 h post-treatment compared to untreated cells. How it is done:
as §3

The test system of data set [10] is OVCAR-3 human ovarian carcinoma cell line. To be noted: read-out: IC50 of Compound 1 tartrate; OVCAR-3, Ovary; ATP levels 72 h post-treatment compared to untreated cells. The protocol: as §3
Data set [11] relates to H460 non-small cell lung cancer cell line. Conditions: read-out: IC50 of Compound 1 tartrate; H460, NSCLC; ATP levels 72 h post-treatment compared to untreated cells. How it is done: as §3
Data set [12] deals with HMEC normal mammary epithelial cells. The protocol:
as §3

Data set [13] concerns PC-3 human prostatic carcinoma cell line. Conditions: read-out: IC50 of Compound 1 tartrate; PC-3, Prostate; ATP levels 72 h post-treatment compared to untreated cells. The protocol:
as §3

The subject of data set [14] is C33A human cervical cancer cells. Conditions: for reduction in tumor growth compared to vehicle only: 4.5 mg/kg IV once a day for five days, C33A tumors in SCID mice, FIG. 3; for T/C value: 4.5 mg/kg IV once daily for five days. How it is done:
The resultant mice are a model for a human having cervical cancer.
The C33A human cervical cancer cells were maintained in RPMI (Hyclone, Utah, USA) supplemented with 10% inactivated fetal bovine serum (Bio-Whittaker, MD, USA) and 1% penicillin-streptomycin-L-Glutamine (Gibco, N.Y., USA), under 5% CO2 at 37° C., and passaged twice a week. The cells were grown at a confluency lower than 70% and than collected with Trypsin (Bio-Whittaker, MD, USA). The cells were then centrifuged and washed twice using phosphate buffered saline solution (PBS) and resuspended in PBS at 2×10^6 cells per 100 μl.
C33A cells were injected subcutaneously into the flank of female CB17 SCID/SCID mice. Each mouse was inoculated with a suspension of 2×10^6 tumors cells per 150 μl on day zero.
Treatments started on day fourteen after C33A cells transplantation. […] The negative control group was treated with vehicle alone. […] The positive control group was treated once every 3 days for five times with cisplatin (Sigma, St. Louis, Mo., USA) at a dose of 4 mg/kg. Cisplatin was formulated in PBS on each day of the injection and was administered IP in an injection volume of 80 μl.
The mice were weighed and the tumors measured on day 13 and every 2 days after treatment commenced. Observation continued for 40 days after initial tumor implantation. The changes in body weight and in the calculated tumor volume were plotted.

The format of data set [15] is in vivo, CB17 SCID/SCID mice. To be noted: 4.5 mg/kg IV once daily for five days, FIG. 2. How it is done: Treatments started on day fourteen after C33A cells transplantation. […]. The negative control group was treated with vehicle alone. […].
Observation continued for 40 days after initial tumor implantation.

The subject of data set [16] is calf intestinal alkaline phosphatase. Nature of the data set: Conversion of phosphate pro-drug by calf intestinal alkaline phosphatase in vitro. The data set is classed as in vitro ADME. Conditions: 15 μM, 0.02 U/100 μL enzyme, pH 7.4; 30, 60, 120 minutes; FIG. 5. How it is done: (§4) The conversion into biologically active drug of phosphate pro-drugs by calf intestinal alkaline phosphatase and human placental alkaline phosphatase was measured in vitro using purified enzymes. Purified calf intestinal alkaline phosphatase (Roche Diagnostic Inc. Laval, Quebec, Canada) or human placental alkaline phosphatase (Sigma-Aldrich Canada Ltd. Oakville, Ontario, Canada) was added at a concentration of 0.02 U/100 μL to a solution containing 15 μM of Compound 66, 20 mM Tris-HCl, pH 7.4 and 0.9% NaCl. The solutions were incubated for 30, 60 or 120 minutes. A solution containing 15 μM of Compound 66, 20 mM Tris-HCl, pH 7.4 and 0.9% NaCl was used as a reference (time=0 minutes). To each solution, an equal volume (100 μL) of ice-cold acetonitrile was added, and then the mixture was vortexed and transferred to glass vials. A standard concentration curve of the pro-drug and the drug was prepared in 10 mM Tris-HCl, pH 7.4, 0.45% NaCl and 50% acetonitrile. All samples were immediately analyzed by LC/MS.

In data set [17] the target is T1, human placental alkaline phosphatase (Homo sapiens, UniProt P05187).
T1 construct: purchased Sigma-Aldrich Canada Ltd
The data set can be described thus: Conversion of phosphate pro-drug by human placental alkaline phosphatase in vitro. The data set is classed as in vitro ADME. Conditions: 15 μM, 0.02 U/100 μL enzyme, pH 7.4; 30, 60, 120 minutes; FIG. 4. How it is done: as §4

Data set [18] is described as follows: physchem. Conditions: water.
Description: as §5
In data set [19] the test system is human prostatic adenocarcinoma cancer PC3 cells. Nature of the data set: Growth of PC3 prostatic tumors in SCID mice. The data set is classed as in vivo. Conditions: 5 consecutive intravenous injections; Compound 1 Mesylate Salt 4.84 μMoles/Kg; Compound 66 4.84 or 14.51 μMoles/Kg; FIG. 6. How it is done: The human prostatic adenocarcinoma cancer PC3 cells were purchased from the American Type Culture Collection (ATCC). These cells were confirmed to be free of mycoplasma infection. Cells were maintained in the Roswell Park Memorial Institute (RPMI), supplemented with 10% inactivated fetal bovine serum and 1% penicillin-streptomycin-L-Glutamine, under 5% carbon dioxide (CO2) at 37° C. For prostatic-tumor induction, cells were grown lower than 70% confluence in complete medium and then collected with trypsin (Bio Whittaker, Rockland, Me., USA). Cells were then centrifuged and washed 2 times in phosphate buffer solution (PBS) and resuspended in PBS at 1.5×10^6 cells/0.1 mL. PC3 cells were then transplanted subcutaneously into the flank of SCID mice (Charles River Laboratories, Wilmington, Mass., USA), as a suspension of tumor cells (1.5×10^6 cells in 100 μL PBS), under a laminar airflow hood. Eleven (11) days later, the size of each tumor was measured. […] Relative tumor size and volume was calculated as follows: length (cm)×[width (cm)]^2/2. […]

T1 sequence (P05187 23-506): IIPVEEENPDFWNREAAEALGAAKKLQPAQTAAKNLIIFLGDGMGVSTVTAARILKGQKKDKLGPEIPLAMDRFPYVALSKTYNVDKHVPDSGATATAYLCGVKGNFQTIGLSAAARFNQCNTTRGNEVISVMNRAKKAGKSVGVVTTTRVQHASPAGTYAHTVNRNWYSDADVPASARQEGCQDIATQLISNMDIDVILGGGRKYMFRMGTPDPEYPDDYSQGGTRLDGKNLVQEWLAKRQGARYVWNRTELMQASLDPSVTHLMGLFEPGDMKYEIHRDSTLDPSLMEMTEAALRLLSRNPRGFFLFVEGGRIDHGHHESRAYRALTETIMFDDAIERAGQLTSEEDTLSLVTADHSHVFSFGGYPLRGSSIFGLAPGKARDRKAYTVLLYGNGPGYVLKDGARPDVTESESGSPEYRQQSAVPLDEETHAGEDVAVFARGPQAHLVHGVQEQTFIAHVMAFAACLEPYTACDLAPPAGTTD

For the compound `COC1=CC(c2cc3ccccc3[nH]2)=N/C1=C\c1[nH]c(C)cc1C` [Compound 1 tartrate], the IC50 (commonly the concentration at which inhibition is half-maximal) in [1] was 200 nM; in data set [2] it was 500 nM; in data set [4] it was 400 nM; in data set [5], 600 nM; in [6] it was 400 nM; in data set [8], 60 nM. The IC50 turned out to be 200 nM in data set [9]; 200 nM in data set [10]; 300 nM in [11]; 4000 nM in data set [12] (read-out: IC50 of Compound 1 tartrate, HMEC, Normal Breast, ATP levels 72 h post-treatment compared to untreated cells); 200 nM in [13]. Besides, in data set [3], the precipitation of formulation entry is “tends to precipitate one hour after its preparation”. Further, the “lowering of ATP levels in cancer cell lines compared with normal cell lines” value in [7] is reported as “significantly more effective at lowering ATP levels”. In data set [12] (ten cancer cell lines vs HMEC, various concentrations), the “efficacy in decreasing cellular ATP levels in cancer cell lines versus HMEC normal cell line” value was “greater efficacy in decreasing cellular ATP levels”. Moreover, the “reduction in tumor growth compared to vehicle only” value is given as “statistically significant (p<0.0001) reduction in tumor growth” in [14] and “significantly reduces the human cervical tumors” in data set [14] (listed as Compound 1 Tartrate). Further, the T/C value in data set [14] (day 36) is reported as 14%; in data set [14] (day 39), 22%. Besides, the “average tumor size versus vehicle only” value in data set [14] (days 36 and 39, 4.5 mg/kg) was “significantly (p<0.001) smaller tumors”. Also, the body weight change entry in [15] is given as “no significant changes in body weight”; in data set [15] (listed as Compound 1 Tartrate), “non-significant weight loss”.

Consider `COC1=CC(c2cc3ccccc3n2C(=O)CC(C)(C)c2c(C)cccc2OP(=O)(O)O)=N/C1=C/c1[nH]c(C)cc1C` [Compound 66], for which the “conversion of pro-drug into Compound 1” value in [16] and in data set [17] was “convert a fraction of the pro-drug” each time. The solubility (commonly the dissolved amount per volume that the medium holds) in [18] came out at 10000 µg/mL (≈ 17 mM). In addition, the “growth of prostatic tumors in mice” value in [19] is reported as “significantly reduce the growth of prostatic tumors”.
